Literature values, collected in US6783752B2, “Contrast agents” (Amersham Health AS, priority 1996, dated 2004).

Legend:
[1] = in vivo
coronary blood flow = conditions: in vivo

Nc1ncnc2c1ncn2[C@@H]1O[C@H](CO)[C@@H](O)[C@H]1O [adenosine]
blood pool half-life [1]: 2 s | increase in coronary blood flow in healthy myocardial tissue (coronary blood flow): in excess of fourfold increases in coronary blood flow
